Measured values taken from BindingDB's records for PubMed 10347254 (R. W. Johnson Pharmaceutical Research Institute, 1999).

Target: Histamine H3 receptor (Homo sapiens, UniProt Q9Y5N1)
Sequence (Q9Y5N1 whole entry): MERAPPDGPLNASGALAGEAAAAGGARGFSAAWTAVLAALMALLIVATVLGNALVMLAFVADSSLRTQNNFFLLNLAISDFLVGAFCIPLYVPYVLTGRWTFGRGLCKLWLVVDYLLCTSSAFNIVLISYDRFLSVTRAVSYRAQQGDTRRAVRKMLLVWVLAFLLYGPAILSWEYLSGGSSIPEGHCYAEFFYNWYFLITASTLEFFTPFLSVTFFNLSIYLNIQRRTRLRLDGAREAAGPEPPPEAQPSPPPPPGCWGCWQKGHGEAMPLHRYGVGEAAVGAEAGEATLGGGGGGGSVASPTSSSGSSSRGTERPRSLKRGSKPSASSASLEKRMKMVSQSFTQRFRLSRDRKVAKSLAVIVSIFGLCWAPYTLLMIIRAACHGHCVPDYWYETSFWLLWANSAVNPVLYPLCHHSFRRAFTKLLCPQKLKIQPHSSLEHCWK

Compound	Ki
COc1ccc(CN(CCN(C)C)c2ccccn2)cc1	> 10 µM
CN/C([CH-][N+](=O)[O-])=[NH+]\CCSCc1ccc(CN(C)C)o1	> 10 µM
N=C(N)SCCc1cnc[nH]1 [2-(3H-imidazol-4-yl)ethylsulfanylmethanimidamide]	> 10 µM
c1c[nH]cn1	> 10 µM
c1nc(CC2CCNCC2)c[nH]1 [4-(1H-imidazol-4-ylmethyl)piperidine]	> 10 µM
CNCCc1c[nH]cn1 [N(alpha)-Methylhistamine]	> 10 µM
